From ChEMBL document CHEMBL1201862, “PubChem BioAssay data set” (2004) come the findings set out here.

Molecules are shown by their SMILES.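 Growth conditions: 96-well plates. Treatment: test compound, 48 hours, 5 concentrations. Analysis: linear interpolation between bracketing concentrations; unreached endpoints set to highest concentration. Here, GI50 denotes the concentration required for 50% inhibition of growth.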 Activity calls are given as the source filed them. Rule as the data show it: active = GI50 up to about 1.1 µM and inactive = higher.

Among the test systems are BT-549; Hs-578T; HOP-18; KM-20L2; LXFL 529; M19-MEL; SNB-78; XF498.
What all share (test): NCI anticancer screen, dose series, 48 h

`[N-]=[N+]=NCC(=O)c1cnc(O)nc1O`: the GI50 with BT-549 and with Hs-578T was > 100 µM (inactive) throughout.
In the case of `CC(C)(C)c1cc(C(=O)/C=C/c2cc[nH]n2)cc(C(C)(C)C)c1O`, the GI50 in the experiment with BT-549 is 4.83 µM (inactive); in the experiment on Hs-578T it was 2.57 µM (inactive).
The corresponding values for `COc1cccc(C2CC(C)(O)Oc3cc4c(cc32)OCO4)c1` (centres undefined) are 16.1 µM (inactive) and 16.4 µM (inactive).
Consider `CC(C)(C)C1CCC2c3c([nH]c4ccccc34)C3C(=O)N(c4ccccc4Cl)C(=O)C3C2C1` (centres undefined), for which the GI50 was 23.8 µM (inactive) in the experiment with BT-549 and 10.4 µM (inactive) in the experiment on Hs-578T.
Consider `COC(=O)C(CC1=C(O)Nc2ccccc2N1)/C(=N/NC(N)=O)C(=O)Nc1ccccc1C` (centres undefined), for which the GI50 in the experiment on HOP-18 was > 100 µM (inactive); in the experiment with KM-20L2, > 100 µM (inactive); in the experiment with LXFL 529, 69.8 µM (inactive); in the experiment on M19-MEL, 60.1 µM (inactive); in the experiment on SNB-78, > 100 µM (inactive).
For `CCn1c2ccccc2n2c(=O)c3c(c(C#N)c12)CCCC3`, the GI50 in the experiment with BT-549 and in the experiment with Hs-578T was > 100 µM (inactive) in each case.
For `O=[N+]([O-])c1ccc(/C=C(/c2ccc([N+](=O)[O-])o2)S(=O)(=O)c2ccccc2)o1`, the GI50 is 19.9 µM (inactive) in the experiment on BT-549 and 15.4 µM (inactive) in the experiment on Hs-578T.
On the same counts, the results for `NNc1nncn1N` are > 100 µM (inactive) and > 100 µM (inactive).
On to `COc1ccc(N2C(=O)C(N3C(=O)C=CC3=O)C2C=O)cc1` (centres undefined), for which the GI50 in the experiment with HOP-18, in the experiment on KM-20L2, in the experiment on LXFL 529, with M19-MEL and in the experiment with SNB-78 was > 100 µM (inactive) throughout.
As for `CN(C)CCC(/C=C/c1ccccc1)=N\Nc1ccccc1`, the GI50 was 4.5 µM (inactive) with HOP-18; 0.241 µM (active) with KM-20L2; 0.185 µM (active) with LXFL 529; 1.57 µM (inactive) with M19-MEL; 3.63 µM (inactive) in the experiment with SNB-78.
`CCCCCCCCCCCCCCCCCCOCC(O)COP(=O)(O)OCC1OC(n2cc(F)c(=O)[nH]c2=O)CC1O` (centres undefined): the GI50 was 13.7 µM (inactive) in the experiment with BT-549 and 14.3 µM (inactive) with Hs-578T.
On the same counts, the results for `O=C(NC(Cc1ccccc1)P(=O)(O)c1ccccc1)OCc1ccccc1` (centres undefined) are > 100 µM (inactive) and > 100 µM (inactive).
Regarding `CNC1C(O)C(OC2C(N)CC(N)C(OC3OC(C(C)O)C(O)C(O)C3N)C2O)OCC1(C)O` (centres undefined), the GI50 in the experiment on BT-549 and in the experiment on Hs-578T was > 100 µM (inactive) each time.
Take `N#CC(C#N)=C/C=C(\Sc1c(Cl)c(Cl)nc(Cl)c1Cl)c1ccc(Cl)cc1`: the GI50 in the experiment on Hs-578T is 15.7 µM (inactive).
Take `O=c1c2ccc3cccc4c(=O)cc(c5ccccc15)-c2c34`: the GI50 is 22.7 µM (inactive) with HOP-18, > 100 µM (inactive) in the experiment with KM-20L2, 29.6 µM (inactive) with LXFL 529 and 20.3 µM (inactive) in the experiment on M19-MEL.
On to `COc1cc(C)c2c(c1)CN1CN2Cc2cc(OC)cc(C)c21`, for which the figures for the GI50 with LXFL 529, in the experiment on M19-MEL and with SNB-78 were 60 µM (inactive), 38.9 µM (inactive) and 56.8 µM (inactive), respectively.
For the molecule `COc1ccc(C2NC3=C(CCCC3)C3(C#N)C(=O)N=C(N)C23C#N)cc1` (centres undefined), the GI50 with BT-549 and in the experiment with Hs-578T was > 100 µM (inactive) each time.
`C=CCOC(=O)CCCCCCCCCCCCCCCOC(=O)C1=C(CCC[C@@H](C)O[Si](C)(C)C(C)(C)C)NC(=O)N2[C@H](CC3(CC/C=C\[C@H](CC)O[Si](C(C)C)(C(C)C)C(C)C)OCCO3)CC[C@H]12`: in the experiment with BT-549, the GI50 was > 100 µM (inactive).
Consider `O=C1C2C3C4C1C1C2[C@H](OCc2ccccc2)C3C1[C@H]4OCc1ccccc1` (some centres undefined), for which the GI50 in the experiment on BT-549 is > 100 µM (inactive); in the experiment with Hs-578T, 20.5 µM (inactive).
On the same counts, the results for `[N-]=[N+]=CC(=O)C1CCCN1C(=O)c1ccccc1` (centres undefined) are > 10 µM (inactive) and > 10 µM (inactive).
Consider `COc1ccc(C(OCC2OC(n3ccc(Oc4c(F)c(F)c(F)c(F)c4F)nc3=O)CC2OP(OCCC#N)N(C(C)C)C(C)C)(c2ccccc2)c2ccc(OC)cc2)cc1` (centres undefined), for which the GI50 in the experiment on BT-549 and with Hs-578T was > 100 µM (inactive) each time.
Take `NC1CC2C3CCC2C1C3=O` (centres undefined): in the experiment with Hs-578T, the GI50 was > 100 µM (inactive).
As to `CC(=O)C(=C(c1ccccc1)c1ccccc1)c1ccccc1`, the GI50 with BT-549 and with Hs-578T was > 100 µM (inactive) each time.
Consider `COC(=O)C(Cc1c[nH]c2ccccc12)NC(=O)C(Cc1c[nH]cn1)NC(=O)C1CCC(=O)N1C(=O)OCc1ccccc1` (centres undefined), for which the GI50 in the experiment with BT-549 and with Hs-578T was > 100 µM (inactive) throughout.
`CC1(C)CC(=O)c2c(nc3c(ccc4ccccc43)c2-c2ccc(NC(=O)CCC(=O)Nc3ccc(-c4c5c(nc6c4ccc4ccccc46)CC(C)(C)CC5=O)cc3)cc2)C1`: the GI50 with BT-549 and in the experiment on Hs-578T was > 100 µM (inactive) throughout.
In the case of `O=C(O)COc1c(Cl)cc(Cl)c(C(c2c(Cl)cc(Cl)c(OCC(=O)O)c2Cl)C(Cl)(Cl)Cl)c1Cl`, the GI50 is 23.1 µM (inactive) in the experiment with BT-549 and 38 µM (inactive) in the experiment on Hs-578T.
In the case of `O=c1cc(/N=N/c2ccc(O)cc2)[nH]c(=O)[nH]1`, the GI50 in the experiment with BT-549 was > 100 µM (inactive).
Take `NNC(=O)CC(=O)Nc1cccc(Cl)c1`: the GI50 in the experiment with BT-549 and in the experiment with Hs-578T was > 100 µM (inactive) each time.
Regarding `C=C(Cl)[C@@](Cl)(CBr)CC[C@@H](Br)C(C)(C)Cl`, the GI50 in the experiment with BT-549 is 3.66 µM (inactive); with Hs-578T, 0.386 µM (active).
For the molecule `O=C1NN(Cc2ccccc2)C(=O)N2CCC[C@@H]12`, the GI50 in the experiment with Hs-578T is > 100 µM (inactive).
Regarding `Cc1cc(C)n2nc3nc(N)c(C#N)c(-c4ccccc4)c3c2n1`, the GI50 with BT-549 and with Hs-578T was > 100 µM (inactive) in each case.
`COc1ccc([C@@]2(O)c3c(ccc(O)c3OC)[C@H]2OC)c(OC)c1`: the GI50 in the experiment on KM-20L2 is 66.5 µM (inactive); in the experiment on LXFL 529, 30.2 µM (inactive); in the experiment with M19-MEL it was 48.5 µM (inactive); with XF498, 41.7 µM (inactive).
For `CCOC(=O)C(=O)/C(=C/N1C(=O)CC(=O)NC1=S)C(=O)OCC`, the GI50 in the experiment on BT-549 is > 100 µM (inactive); in the experiment with Hs-578T, 18.7 µM (inactive).
`COC(=O)C([C@H]1CC[C@H](OCc2ccccc2)[C@@]1(O)COCc1ccccc1)C(C)(O)CCc1ccccc1` (some centres undefined): the GI50 with BT-549 is 16.7 µM (inactive).
On to `Sc1nnc(Cc2ccc(Cl)cc2)[nH]1`, for which the GI50 is > 100 µM (inactive) with BT-549 and 16.4 µM (inactive) in the experiment on Hs-578T.
The corresponding values for `CCOC(=O)/C=C/[C@@H](CC)O[Si](C(C)C)(C(C)C)C(C)C` are > 100 µM (inactive) and > 100 µM (inactive).
Take `CCCCCC1CC=CC(=O)O1` (centres undefined): the GI50 is 12.3 µM (inactive) in the experiment on BT-549 and 18 µM (inactive) in the experiment on Hs-578T.
As to `COC(=O)[C@@H]1C[C@H]([Se]c2ccccc2)CN1S(=O)(=O)c1ccc(C)cc1`, the GI50 with BT-549 was 98.2 µM (inactive); in the experiment on Hs-578T it was 60.7 µM (inactive).
On the same counts, the results for `CC(C)NCCCNc1c2ccccc2nc2cccc([N+](=O)[O-])c12` are 0.0421 µM (active) and 0.0383 µM (active).
As to `O=C(N/N=C1/C(=O)c2c3ccccc3cc3cccc1c23)c1ccccc1`, the GI50 in the experiment with BT-549 was > 100 µM (inactive); with Hs-578T, 40.6 µM (inactive).
On the same counts, the results for `CC(=O)O[C@H]1CC[C@@]2(C)C(=CC[C@@H]3[C@@H]2CC[C@]2(C)C(=N/O)/C(=C/c4ccc([N+](=O)[O-])cc4)C[C@@H]32)C1` are 2.25 µM (inactive) and 2.39 µM (inactive).
For `O=C(/C=C/c1cccc([N+](=O)[O-])c1)N1CCN(CCOC(c2ccccc2)c2ccccc2)CC1`, the GI50 in the experiment on BT-549 is 27.4 µM (inactive).
On to `C=C1NC(=O)C(CC(C(=O)C(=O)Nc2c(C)cccc2C(C)(C)C)C(=O)c2ccc3ccccc3c2)C(=O)N1` (centres undefined), for which the GI50 with BT-549 and with Hs-578T was > 100 µM (inactive) each time.
As for `CC1(C)CC[C@]2(C(=O)O)CC[C@]3(C)C(=CC[C@@H]4[C@@]5(C)CC[C@H](OC6OC(CO)C(O)C(O)C6OC6OC(CO)C(O)C(O)C6O)C(C)(C)[C@@H]5CC[C@]43C)[C@@H]2C1` (some centres undefined), the results for the GI50 with BT-549 and in the experiment on Hs-578T were 19.5 µM (inactive) and 24.2 µM (inactive), respectively.
On the same counts, the results for `Cc1nc(N)c(N2CCN(S(=O)(=O)N(Cc3ccccc3)Cc3ccccc3)CC2)c(O)n1` are 48.9 µM (inactive) and 33.3 µM (inactive).
The corresponding values for `O=C1CNc2cc(N3CCN(c4cccc(C(F)(F)F)c4)CC3)ccc2N1` are 42.8 µM (inactive) and 42.1 µM (inactive).
On the same counts, the results for `O=c1[nH]c2ccc(O)cc2o1` are > 100 µM (inactive) and > 100 µM (inactive).
For `Fc1cccc2nc(-c3ccccc3)cc(OCc3ccccc3)c12`, the GI50 with BT-549 and with Hs-578T was > 100 µM (inactive) each time.
As for `COC(CN(C)C(=S)Nc1cccc2ccccc12)OC`, in the experiment on Hs-578T, the GI50 was > 10 µM (inactive).
For the molecule `O=c1c2c(-c3ccccc3)c3ccccc3nc2cnn1-c1ccccc1`, the GI50 in the experiment on HOP-18, in the experiment with KM-20L2, with LXFL 529, in the experiment on M19-MEL and with SNB-78 was > 100 µM (inactive) throughout.
With `COc1ccc(CC2C3=C(CCCC3)CCN2C)cc1` (centres undefined), the GI50 in the experiment on Hs-578T was 77.6 µM (inactive).
Turning to `O=S(=O)(O)CCCc1cccc2ccccc12`, the GI50 in the experiment with BT-549 and with Hs-578T was > 100 µM (inactive) each time.
As for `O=C1O[C@H]2[C@@H]3OC(=O)c4cc(O)c(O)c(O)c4-c4c(cc(O)c(O)c4O)C(=O)OC[C@H]2O[C@@H](OC(=O)c2cc(O)c(O)c(O)c2)[C@@H]3OC(=O)c2cc(O)c(O)c3c2[C@@H]2C1=CC(=O)C(O)(O)C2(O)O3` (some centres undefined), the figures for the GI50 with BT-549 and in the experiment on Hs-578T were 72.8 µM (inactive) and 40.4 µM (inactive), respectively.
On the same counts, the results for `COc1cc(-c2cc(=O)c3c(O)c(OC)c(OC)c(OC)c3o2)cc(OC)c1OC` [GARDENIN] are 6.76 µM (inactive) and 3.15 µM (inactive).
Consider `CC(C)=CCc1c2c(c3occ(-c4ccc(O)c(O)c4)c(=O)c3c1O)C=CC(C)(C)O2` [POMIFERIN], for which the GI50 with BT-549 is 3.46 µM (inactive); with Hs-578T, 1.22 µM (inactive).
Turning to `C[C@H](CCC(=O)O)[C@H]1CC[C@H]2[C@@H]3[C@@H](O)C[C@@H]4C[C@H](O)CC[C@]4(C)[C@H]3CC[C@]12C` [URSODIOL], the GI50 in the experiment with BT-549 is > 100 µM (inactive).
